Measured values taken from publication PMC12068008 (International Journal of Molecular Sciences, 2024).
“And” between values parts separate entries of the source, which are not always exact repeats. Equal values may be shown once.

Key:
HeLa cells = assay: SRB assay, HeLa cells; format: cell-based; conditions: for Viability of HeLa cells: % of control, concentrations 1 × 10^−6 to 1 × 10^−4 M (not assigned to the values for 2a); for IC50: Homo sapiens, HeLa, 72 h after treatment, SRB, read-out: IC50 HeLa
Description: (§1) All cell lines were cultured in Dulbecco’s Modified Eagle’s Medium (DMEM) with 4500 mg/L glucose and L-glutamine (Capricorn Scientific, Ebsdorfergrund, Germany), supplemented with 10% foetal bovine serum (PAN-Biotech, Aidenbach, Germany), 10,000 U/mL penicillin, and 10 mg/mL streptomycin solution (Capricorn Scientific) under standard conditions at 37 °C in a humidified 5% CO2 atmosphere (ESCO, Lifesciences Group, Singapore).
(§2) Cells were seeded on a 96-well plate (Thermo Fisher Scientific, Waltham, MA, USA) at 2 × 10^3 cells per well in DMEM medium. For the analysis of the concentration- and time-dependent effect of the analysed compounds, cell monolayers were treated 24 h after seeding with concentrations 1 × 10^−6, 1 × 10^−5, and 1 × 10^−4 M for 24, 48, or 72 h. Cell viability was detected using sulforhodamine B (SRB) assay, based on the staining of cellular proteins. The assay was performed according to the procedure described by Skehan et al.. The cells were fixed with 10% trichloroacetic acid (TCA, CARLO ERBA Reagents GmbH, Emmendingen, Germany) for 1 h at 4 °C, washed with water, and stained for 15 min with 0.4% SRB (Sigma-Aldrich Chemie GmbH, Steinheim, Germany) in 1% acetic acid. The unbound SRB dye was rinsed with 1% acetic acid, while the protein-bound dye was extracted with a 10 mM Tris base (Sigma-Aldrich). […] The results were expressed as a percentage of the control, where the cell growth of the control is set to 100%. […] The selectivity index (SI) was determined according to the following formula:(2) SI=IC50 for fibroblast cell line/IC50 for tumour cell line
(§3) The assay was performed two times in 4 replicates for every experimental group. The statistical significance of differences between treated and untreated cells was estimated by the independent Student’s t-test, with the level of significance set at p < 0.05.

MDA-MB-231 cells = assay: SRB assay, MDA-MB-231 cells; format: cell-based; conditions: for IC50: Homo sapiens, MDA-MB-231, 72 h after treatment, SRB, read-out: IC50 MDA-231
Description: as §1, §2, §3

MRC-5 cells = assay: SRB assay, MRC-5 cells; format: cell-based; conditions: Homo sapiens, MRC5; 72 h after treatment, SRB; read-out: IC50 MRC
Description: as §1, with “Two human breast cancer cell lines, MDA-MB-231 (HTB-26) and MDA-MB-468 (HTB-132), human cervical cancer cell line HeLa (CCL-2), and MRC-5 (CCL-171) fibroblasts were purchased from the American Type Culture Collection (ATCC, Manassas, VA, USA). All” for “All”
Cells were seeded on a 96-well plate (Thermo Fisher Scientific, Waltham, MA, USA) at 2 × 10^3 cells per well in DMEM medium. For the analysis of the concentration- and time-dependent effect of the analysed compounds, cell monolayers were treated 24 h after seeding with concentrations 1 × 10^−6, 1 × 10^−5, and 1 × 10^−4 M for 24, 48, or 72 h. Cell viability was detected using sulforhodamine B (SRB) assay, based on the staining of cellular proteins. The assay was performed according to the procedure described by Skehan et al.. The cells were fixed with 10% trichloroacetic acid (TCA, CARLO ERBA Reagents GmbH, Emmendingen, Germany) for 1 h at 4 °C, washed with water, and stained for 15 min with 0.4% SRB (Sigma-Aldrich Chemie GmbH, Steinheim, Germany) in 1% acetic acid. The unbound SRB dye was rinsed with 1% acetic acid, while the protein-bound dye was extracted with a 10 mM Tris base (Sigma-Aldrich). The absorbance was measured at 550 nm with a reference wavelength of 690 nm in a microplate reader (Wallac, VICTOR2 1420 Multilabel counter, PerkinElmer, Turku, Finland). The results were expressed as a percentage of the control, where the cell growth of the control is set to 100%. […] The selectivity index (SI) was determined according to the following formula:(2) SI=IC50 for fibroblast cell line/IC50 for tumour cell line […]

[1] = Metal-chelating assay, binding stoichiometry (molar ratio method), Fe2+; format: physicochemical; conditions: ethanol, 30 min, compound 5 × 10^−5 M
Description: Binding stoichiometry was determined using the molar ratio method, with increasing concentrations of metal ions (from 0 to 1.5 × 10^−4 M) (Figures S1 and S2). Absorption spectra were collected 30 min after mixing. The change in absorption at the wavelength of maximum absorbance for the formed complex was plotted against the metal ion (M^2+ = Cu^2+, Zn^2+, and Fe^2+) to compound ratio (cM^2+/ccompound) and is presented in Figure 3. This graph allows the determination of the binding ratio between the newly synthesized compounds and metal ions. […] In contrast, the results for Fe^2+ indicate that only one Fe^2+ ion can bind to both compounds.
The metal-chelating ability of synthesized compounds in ethanol was assessed using UV/Vis spectrophotometer (Lambda 35, Perkin Elmer) recording spectra over a wavelength range of 230–600 nm in a 1 cm quartz cell. The mixture of compound at 5 × 10^−5 M of final concentration and metal ions at 1 × 10^−4 M of final concentration was incubated for 30 min at room temperature. The tested temperature was 25 °C. […]
The binding stoichiometry was assessed by adding increasing concentrations of metal ions (0–1.5 × 10^−4 M) to a fixed concentration of compound (5 × 10^−5 M) and incubating the mixture for 30 min at room temperature. The spectra were then measured as described above, and the ligand-to-metal chelation ratio in the complex was calculated.

Row | Structure (SMILES) | Viability of HeLa cells (HeLa cells; 48 h) | Viability of HeLa cells (HeLa cells; 72 h) | IC50 (HeLa cells) [µM] | Viability of MDA-231 cells (MDA-MB-231 cells; 72 h) | IC50 (MDA-MB-231 cells) [µM] | IC50 (MRC-5 cells) [µM] | binding stoichiometry Fe^2+ (ions bound) [1]
1 | O=c1c(O)c(-c2ccc(O)c(O)c2)oc2c(CN3CCc4ccccc4C3)c(O)cc(O)c12 [Compound 2a] | 43% and 37% | 35% and 29% | 53.5 ± 2.67 | recovered to the control level or even increased | 146 ± 7 | 55.7 ± 2.78 | one
2 | COc1cc2c(cc1OC)CN(Cc1c(O)cc(O)c3c(=O)c(O)c(-c4ccc(O)c(O)c4)oc13)CC2 [Compound 2b] | – | – | 19.5 ± 0.97 | – | 106 ± 5 | 16.6 ± 0.83 | one
